Results reported in patent EP4640240A1, “PEPTIDE-BASED RADIOPHARMACEUTICALS FOR NON-INVASIVE IMAGING OF THE FUNCTIONAL LIVER RESERVE” (Medizinische Universität Innsbruck, priority 2024, dated 2025).
Where two headings read alike, the source gives them in different places.

Experiments:
[1] = Stability in human blood serum (radio-HPLC); format: in vitro ADME; conditions: 37 °C
Protocol: Ligand stability in human blood serum (n = 2) and PBS (pH = 6.5) (n = 1) was determined for different time points (2 min, 30 min, 60 min, 120 min). Therefore, approx. 5 MBq of radioligand was added to 1 mL of fresh human serum at 37 °C or PBS at rt. At each given time point 100 µL of the mixture were transferred to a 1.5 mL Eppendorf tube containing 100 µL of acetonitrile. The vial was vortexed and centrifuged for 2 min at 14,000 1/min before 100 µL of the supernatant were diluted with 200 µL of water and injected into analytical radio-HPLC. The PBS solution was directly injected into the radio-HPLC. Ligand stability was determined by integrating the areas of the signals in the radio chromatogram in relation to the signal of the intact ligand.

[2] = Protein binding in human serum (MicroSpin G-50 columns); format: in vitro ADME; conditions: fresh human serum, 37 °C, n=3
Protocol: Protein binding was determined for different time points (2 min, 30 min, 60 min, 120 min) in triplicates using Sephadex MicroSpin G-50 columns (GE-Healthcare, Chicago, Illinois, USA). The columns were spun initially at 20,000 rcf for 1 min to remove the storage buffer. Then approx. 5 MBq of radioligand was added to 1 mL of fresh human serum and incubated at 37 °C. At each given timepoint 25 µL of the mixture was loaded on to the column, which was then spun at 20,000 rcf for 1 min. The activity content on the column (free radioligand) and in the filtrate (protein bound fraction) was quantified in a γ-counter.

[3] = Partition coefficient logD (n-octanol/PBS); format: physicochemical; conditions: n=6
Protocol: For determination of logarithmic partition coefficients (logD) n-Octanol (500 µL) and PBS (500 µL) were pipetted into eight 1.5 mL Protein Low-Bind Eppendorf tubes followed by addition of 300 kBq of labelled compound. The vials were vortexed for 5 min at 1,500 1/min and then centrifuged for 5 min at 20,000 rcf (Eppendorf Centrifuge 5424). Aliquots of 100 µL were taken out of each phase and the amount of activity was quantified in a γ-counter (Perkin Elmer 2480 Wizard2 3"; Waltham, Massachusetts, USA).

[4] = Biodistribution studies in BALB/c mice; format: in vivo; conditions: female, mouse, iv, total radioactivity, healthy BALB/c mice, 0.1 nmol i.v.; for tissue uptake at 10 min: 10 min p.i.; for tissue uptake at 0.5 h: 30 min p.i.; for tissue uptake at 1 h: 60 min p.i.
Protocol: For biodistribution studies 6-week-old female BALB/c mice (n=3) were injected with 0.1 nmol (100 µL, approx. 1 MBq) of labelled compound via the lateral tail vein and sacrificed after 10, 30, or 60 min by cervical dislocation. The mice were dissected, blood and organs (spleen, pancreas, stomach, intestine, liver, kidney, heart, lung, muscle and bone) were weighed and their activity measured in a γ-counter. For blocking experiments, mice were co-injected with 27.7 µmοl N-acetylgalactose.

[5] = Blood, read-out: Biodistribution data, Blood
[6] = Femur, read-out: Biodistribution data, Femur
[7] = Heart, read-out: Biodistribution data, Heart
[8] = Intestine, read-out: Biodistribution data, Intestine
[9] = Kidneys, read-out: Biodistribution data, Kidneys
[10] = Liver, read-out: Biodistribution data, Liver
[11] = Lung, read-out: Biodistribution data, Lung
[12] = Muscle, read-out: Biodistribution data, Muscle
[13] = Pancreas, read-out: Biodistribution data, Pancreas
[14] = Spleen, read-out: Biodistribution data, Spleen
[15] = Stomach, read-out: Biodistribution data, Stomach

For `NC(=O)CNC(=O)CNC(=O)[C@H](CCCCNC(=O)CCCCc1cn(C2O[C@H](CO)[C@H](O)[C@H](O)[C@H]2O)nn1)NC(=O)CNC(=O)CNC(=O)[C@H](CCCCNC(=O)CCCCc1cn(C2O[C@H](CO)[C@H](O)[C@H](O)[C@H]2O)nn1)NC(=O)CNC(=O)CNC(=O)[C@H](CCCCNC(=O)CCCCc1cn(C2O[C@H](CO)[C@H](O)[C@H](O)[C@H]2O)nn1)NC(=O)CNC(=O)CNC(=O)[C@H](CCCCNC(=O)CCCCc1cn(C2O[C@H](CO)[C@H](O)[C@H](O)[C@H]2O)nn1)NC(=O)CNC(=O)CNC(=O)[C@H](CCCCNC(=O)CCCCc1cn(C2O[C@H](CO)[C@H](O)[C@H](O)[C@H]2O)nn1)NC(=O)CNC(=O)CNC(=O)[C@H](CCCCNC(=O)CCCCc1cn(C2O[C@H](CO)[C@H](O)[C@H](O)[C@H]2O)nn1)NC(=O)CCCNC(=O)CC[C@H](C(=O)O)N1CCN(CC(=O)O)CCN(CC(=O)O)CC1` (stereo partly drawn) [[68Ga]Ga-HexaLysan, metal not drawn], the remaining at 2 min ([1]; 2 min, n=2, read-out: Serum stability (% of intact ligand)) was 99.4 ± 0.2%, the “Serum stability (% of intact ligand)” value ([1]; 30 min, n=2) was 99.7 ± 0.1% and the remaining at 1 h ([1]; 60 min, n=2, read-out: Serum stability (% of intact ligand)) was 99.9 ± 0.1%. The remaining at 2 h ([1]; 120 min, n=2, read-out: Serum stability (% of intact ligand)) was 99.9 ± 0.1%, the fraction unbound ([2]; 2 min) was 0.824 and the fraction unbound ([2]; 30 min) was 0.782. The fraction unbound ([2]; 60 min) was 0.82, the fraction unbound at 120 min, 5 MBq/mL ([2]; 120 min) was 0.748 and the logD [3] was -4.34 ± 0.13. It also gave a tissue uptake at 10 min [4, 5] of 2.1 ± 0.04 %ID/g, a tissue uptake at 0.5 h [4, 5] of 0.63 ± 0.07 %ID/g and a tissue uptake at 1 h [4, 5] of 1.05 ± 0.41 %ID/g. The tissue uptake at 10 min [4, 6] was 0.48 ± 0.06 %ID/g, the tissue uptake at 0.5 h [4, 6] was 0.33 ± 0.03 %ID/g and the tissue uptake at 1 h [4, 6] was 0.002 ± 0.001 %ID/g. For the same compound, the tissue uptake at 10 min [4, 7] was 0.94 ± 0.05 %ID/g, the tissue uptake at 0.5 h [4, 7] was 0.37 ± 0.09 %ID/g and the tissue uptake at 1 h [4, 7] was 0.25 ± 0.02 %ID/g. The tissue uptake at 10 min [4, 8] was 1.19 ± 0.25 %ID/g, the tissue uptake at 0.5 h [4, 8] was 3.97 ± 0.28 %ID/g and the tissue uptake at 1 h [4, 8] was 5.94 ± 1.67 %ID/g. It also gave a tissue uptake at 10 min [4, 9] of 4.83 ± 0.3 %ID/g, a tissue uptake at 0.5 h [4, 9] of 1.94 ± 0.22 %ID/g and a tissue uptake at 1 h [4, 9] of 1.34 ± 0.34 %ID/g. For the same compound, the tissue uptake at 10 min [4, 10] was 54.8 ± 3.02 %ID/g, the tissue uptake at 0.5 h [4, 10] was 55.5 ± 7.37 %ID/g and the tissue uptake at 1 h [4, 10] was 45.9 ± 11.8 %ID/g. It also gave a tissue uptake at 10 min [4, 11] of 1.61 ± 0.16 %ID/g, a tissue uptake at 0.5 h [4, 11] of 0.77 ± 0.11 %ID/g and a tissue uptake at 1 h [4, 11] of 0.62 ± 0.19 %ID/g. The tissue uptake at 10 min [4, 12] was 0.93 ± 0.12 %ID/g, the tissue uptake at 0.5 h [4, 12] was 0.57 ± 0.03 %ID/g and the tissue uptake at 1 h [4, 12] was 0.41 ± 0.04 %ID/g. It also gave a tissue uptake at 10 min [4, 13] of 0.91 ± 0.05 %ID/g, a tissue uptake at 0.5 h [4, 13] of 0.69 ± 0.12 %ID/g and a tissue uptake at 1 h [4, 13] of 0.48 ± 0.13 %ID/g. It also gave a tissue uptake at 10 min [4, 14] of 0.5 ± 0.07 %ID/g, a tissue uptake at 0.5 h [4, 14] of 0.21 ± 0.06 %ID/g and a tissue uptake at 1 h [4, 14] of 0.17 ± 0.02 %ID/g. For the same compound, the tissue uptake at 10 min [4, 15] was 1.29 ± 0.28 %ID/g, the tissue uptake at 0.5 h [4, 15] was 1.19 ± 0.28 %ID/g and the tissue uptake at 1 h [4, 15] was 0.4 ± 0.14 %ID/g.
